According to patent US10995101B2, “2-oxo-thiazole derivatives as A2A inhibitors and compounds for use in the treatment of cancers” (iTeos Therapeutics SA, priority 2017, dated 2021):

How the values were obtained:
[1] = molecular target: T1, A2A receptor (Homo sapiens, UniProt P29274); assay: Inhibition of cAMP production in HEK cells; format: cell-based; conditions: HEK-293 cells with A2A receptor
[2] = molecular target: T1, A2A receptor; assay: Human IL-2 T cell assay (restoration of IL-2 production in CGS-21680-treated CD3+ T cells); format: cell-based; parameters: endogenous in cells; host or cells: human CD3+ T cells isolated from venous blood of healthy volunteers
Description: When T-cells are activated, they produce pro-inflammatory cytokines. When the A2A receptor is activated in T cells, the amount of cytokines produced in response to stimulation of T-cells is reduced.
Venous blood from healthy volunteers, all of whom signed an informed consent approved by the Ethics Committee (FOR-UIC-BV-050-01-01 ICF_HBS_HD Version 5.0), was obtained via ImmuneHealth (Centre Hospitalier Universitaire Tivoli, La Louviere, Belgium). Mononuclear cells were collected by density gradient centrifugation, using SepMate-50 tubes (StemCell Technologies, Grenoble, France) and Lymphoprep (Axis-shield, Oslo, Norway) according to the manufacturer's instructions. CD3+ T cells were isolated by immunomagnetic negative selection, using the EasySep Human T Cell Isolation Kit (StemCell Technologies) as per manufacturer's instructions. CD3+ T cells were stored in heat inactivated foetal bovine serum (hiFBS; Gibco, ThermoFisher Scientific, Merelbeke, Belgium) containing 10% DMSO in liquid nitrogen.
Human purified CD3+ T cells were thawed and washed twice with RPMI1640 medium (with UltraGlutamine; Lonza, Verviers, Belgium) supplemented with 1× non-essential amino acids (Lonza), 2% Pen/Strep (Lonza) and 1 mM Sodium Pyruvate (Gibco) (complete media), containing 10% hiFBS. The cells were suspended either in complete media containing 20% hiFBS or in 100% heat inactivated human serum (hiHS; Sigma-Aldrich, Diegem, Belgium). Cells were activated by adding anti-CD3 and anti-CD28 coated microbeads (Dynabeads human T-activator CD3/CD28; Life Technologies, Paisley, UK), suspended either in complete media containing 20% hiFBS or in 100% hiHS. […] Serial dilutions of the compounds of the present invention were prepared and added to the wells. The cells were placed in a 37° C. humidified tissue culture incubator with 5% CO2 for 72 hours. After 72 hours, supernatants were sampled and IL-2 was quantified using the IL-2 (human) AlphaLISA Biotin-Free Detection Kit (AL333F; Perkin-Elmer, Zaventem, Belgium), according to the manufacturer's instructions.

[3] = in vitro; conditions: human, Caco-2, pH 7.4
Description: 2 μM dosing solutions for reference compounds and test compounds are prepared by spiking the appropriate volume of intermediate solution to TB with and without 1 μM Zosuquidar. The final concentration of DMSO is no more than 1% (v/v).
Caco-2 cells are grown in MEM supplemented with 2 mM L-glutamine, 10% FBS, 100 U/mL penicillin-G and 100 μg/mL streptomycin. The cells are incubated at 37° C., 5% CO2 and relatively saturated humidity. After reaching 80-90% confluency, the cells are gently detached with 0.05% trypsin-EDTA solution.
TB and dosing solutions were pre-warmed to 37° C. before transport assay. The cell monolayer was washed twice with HBSS containing 10 mM HEPES. For A-B (apical to basolateral) directional transport assay, 75 μL dosing solution is added to the apical well. Fill each basolateral well with 250 μL TB. For B-A (basolateral to apical) directional transport assay, 250 μL of dosing solution is added to the basolateral well after filling each apical well with 75 μL TB. […] The plates are incubated for 120 minutes at 37° C. with 5% CO2 and saturated humidity. The time zero samples are generated by mixing 50 μL initial dosing solution of test compound or reference compound with 100 μL TB and 250 μL quench solution (acetonitrile (ACN) or other appropriate solvent with internal standard(s), based on the bioanalytical method development). At 120 minutes, 150 μL of solution is collected from each A-B receiver well followed by addition of 250 μL quench solution to get A-B receiver sample. And for other samples (A-B donor, B-A donor and receiver), 50 μL of solution is collected from each corresponding well followed by addition of 250 μL quench solution and 100 μL TB. All samples are vortex-mixed and centrifuged at 3220 g for 20 minutes. Subsequently, supernatant is diluted with ultra pure water for LC-MS/MS analysis. The concentrations of test compound in all samples are determined by LC-MS/MS and expressed as peak area ratio of analyte to internal standard.
The concentration of samples is expressed using the peak area ratio of Analyte to Internal Standard (Analyte/IS).
The efflux ratio is calculated using the following equation: Efflux ratio=Papp(A−B)/Papp(B−A) • where Papp (A−B) and Papp (B−A) are the Papp values of compound in Apical to Basolateral and Basolateral to Apical directional transport, respectively.

[4] = IC50 (nM) (3 nM NECA as agonist, 0.1% BSA), 3 nM NECA as agonist, 0.1% BSA
[5] = IC50 (nM) (5 nM NECA as agonist, 2% HSA), 5 nM NECA as agonist, 2% HSA
[6] = IC50 (nM) (5 μM Adenosine as agonist, 2.0% HSA), 5 μM Adenosine as agonist, 2.0% HSA
[7] = IC50 (nM) (5000 nM CGS-21680 as agonist, 50% HSA), restoration of IL-2 production, human CD3+ T cells, anti-CD3/CD28 beads, 5000 nM CGS-21680, 50% HSA, 72 hours
[8] = IC50 (nM) (500 nM CGS-21680 as agonist, 10% FBS), restoration of IL-2 production, human CD3+ T cells, anti-CD3/CD28 beads, 500 nM CGS-21680, 10% FBS, 72 hours
[9] = IC50 (nM) (500 nM CGS-21680 as agonist, 50% HSA), restoration of IL-2 production, human CD3+ T cells, anti-CD3/CD28 beads, 500 nM CGS-21680, 50% HSA, 72 hours

T1 sequence (P29274 whole entry): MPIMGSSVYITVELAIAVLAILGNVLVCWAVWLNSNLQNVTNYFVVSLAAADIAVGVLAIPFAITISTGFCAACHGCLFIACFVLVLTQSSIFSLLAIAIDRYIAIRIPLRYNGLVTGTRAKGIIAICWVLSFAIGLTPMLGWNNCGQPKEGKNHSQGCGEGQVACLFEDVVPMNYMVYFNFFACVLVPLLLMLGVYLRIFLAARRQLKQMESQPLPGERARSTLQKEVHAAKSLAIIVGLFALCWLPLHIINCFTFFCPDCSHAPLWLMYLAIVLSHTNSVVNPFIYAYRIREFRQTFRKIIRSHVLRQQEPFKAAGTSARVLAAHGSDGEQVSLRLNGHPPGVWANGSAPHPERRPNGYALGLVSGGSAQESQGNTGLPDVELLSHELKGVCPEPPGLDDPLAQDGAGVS

Q: What does the source list for Nc1nc2c(sc(=O)n2CCN2CCN(c3cc(OCC(=O)O)c(F)cc3F)CC2)c2nc(-c3ccco3)nn12 [Compound 43, 2-(5-(4-(2-(5-amino-8-(furan-2-yl)-2-oxothiazolo[5,4-e][1,2,4]triazolo[1,5-c]pyrimidin-3(2H)-yl)ethyl)piperazin-1-yl)-2,4-difluorophenoxy)acetic acid]?
A: IC50 [1, 4]: 0.2 nM; IC50 [1, 5]: 1 nM; IC50 [1, 6]: 36 nM; IC50 [2, 7]: 51 nM; efflux ratio at 120 min, 2 μM [3]: 164

Q: Which IC50 [1, 4] does the source give for CN(C)CCNC(=O)c1ccc(N2CCN(CCn3c(=O)sc4c3nc(N)n3nc(-c5ccco5)nc43)CC2)c(F)c1 [Compound 32, 4-(4-(2-(5-amino-8-(furan-2-yl)-2-oxothiazolo[5,4-e][1,2,4]triazolo[1,5-c]pyrimidin-3(2H)-yl)ethyl)piperazin-1-yl)-N-(2-(dimethylamino)ethyl)-3-fluorobenzamide] here?
A: 4.3 nM

Q: What about the IC50 [1, 5] of the same molecule?
A: 7 nM

Q: And the IC50 [1, 6]?
A: 356 nM

Q: What about the IC50 [2, 7] of the same molecule?
A: 28 nM

Q: And the efflux ratio at 120 min, 2 μM [3]?
A: 329

Q: Which IC50 [1, 4] does the source give for CC(C)(Oc1ccc(N2CCN(CCn3c(=O)sc4c3nc(N)n3nc(-c5ccco5)nc43)CC2)c(F)c1)C(=O)O [Compound 39, 2-(4-(4-(2-(5-amino-8-(furan-2-yl)-2-oxothiazolo[5,4-e][1,2,4]triazolo[1,5-c]pyrimidin-3(2H)-yl)ethyl)piperazin-1-yl)-3-fluorophenoxy)-2-methylpropanoic acid] here?
A: 0.8 nM

Q: What about the IC50 [1, 5] of the same molecule?
A: 15 nM

Q: And the IC50 [1, 6]?
A: 719 nM

Q: What about the IC50 [2] of the same molecule?
A: 5.3 nM

Q: What about the IC50 [2, 8] of the same molecule?
A: 1 nM

Q: And the IC50 [2, 9]?
A: 12 nM

Q: What about the IC50 [2, 7] of the same molecule?
A: 150 nM

Q: What about the efflux ratio at 120 min, 2 μM [3] of the same molecule?
A: 110

Q: With CNCCNC(=O)c1ccc(N2CCN(CCn3c(=O)sc4c3nc(N)n3nc(-c5ccco5)nc43)CC2)c(F)c1 [Compound 31, 4-(4-(2-(5-amino-8-(furan-2-yl)-2-oxothiazolo[5,4-e][1,2,4]triazolo[1,5-c]pyrimidin-3(2H)-yl)ethyl)piperazin-1-yl)-3-fluoro-N-(2-(methylamino)ethyl)benzamide] as the molecule, how does the IC50 [1, 4] read?
A: 0.4 nM

Q: What about the IC50 [1, 5] of the same molecule?
A: 1 nM

Q: What about the IC50 [1, 6] of the same molecule?
A: 42 nM

Q: What about the IC50 [2] of the same molecule?
A: 8.3 nM

Q: And the IC50 [2, 8]?
A: 2.1 nM

Q: What about the IC50 [2, 9] of the same molecule?
A: 5.4 nM

Q: And the IC50 [2, 7]?
A: 14 nM

Q: And the efflux ratio at 120 min, 2 μM [3]?
A: 28

Q: With CNCCNC(=O)COc1ccc(N2CCN(CCn3c(=O)sc4c3nc(N)n3nc(-c5ccco5)nc43)CC2)c(F)c1 [Compound 50, 2-(4-(4-(2-(5-amino-8-(furan-2-yl)-2-oxothiazolo[5,4-e][1,2,4]triazolo[1,5-c]pyrimidin-3(2H)-yl)ethyl)piperazin-1-yl)-3-fluorophenoxy)-N-(2-(methylamino)ethyl)acetamide] as the molecule, how does the IC50 [1, 4] read?
A: 0.3 nM

Q: What about the IC50 [1, 6] of the same molecule?
A: 13 nM

Q: And the IC50 [2]?
A: 4.3 nM

Q: What about the IC50 [2, 8] of the same molecule?
A: 1 nM

Q: What about the IC50 [2, 9] of the same molecule?
A: 2.2 nM

Q: And the IC50 [2, 7]?
A: 28 nM

Q: What about the efflux ratio at 120 min, 2 μM [3] of the same molecule?
A: 38

Q: With CN(CC[S@@+](C)[O-])C(=O)c1cc(N2CCN(CCn3c(=O)sc4c3nc(N)n3nc(-c5ccco5)nc43)CC2)c(F)cc1F [Compound 116, (R)-5-(4-(2-(5-amino-8-(furan-2-yl)-2-oxothiazolo[5,4-e][1,2,4]triazolo[1,5-c]pyrimidin-3(2H)-yl)ethyl)piperazin-1-yl)-2,4-difluoro-N-methyl-N-(2-(methylsulfinyl)ethyl)benzamide] as the molecule, how does the IC50 [1, 4] read?
A: 1.2 nM

Q: What about the IC50 [1, 6] of the same molecule?
A: 245 nM

Q: What about the efflux ratio at 120 min, 2 μM [3] of the same molecule?
A: 421

Q: With N#CCOc1cc(N2CCN(CCn3c(=O)sc4c3nc(N)n3nc(-c5ccco5)nc43)CC2)c(F)cc1F [Compound 74, 2-(5-(4-(2-(5-amino-8-(furan-2-yl)-2-oxothiazolo[5,4-e][1,2,4]triazolo[1,5-c]pyrimidin-3(2H)-yl)ethyl)piperazin-1-yl)-2,4-difluorophenoxy)acetonitrile] as the molecule, how does the IC50 [1, 4] read?
A: 1.2 nM

Q: And the IC50 [1, 5]?
A: 20 nM

Q: What about the IC50 [1, 6] of the same molecule?
A: 495 nM

Q: And the efflux ratio at 120 min, 2 μM [3]?
A: 4

Q: With C[S@@+]([O-])c1ccc(N2CCN(CCn3c(=O)sc4c3nc(N)n3nc(-c5ccco5)nc43)CC2)c(F)c1 (single isomer, unassigned) [Compound 119] as the molecule, how does the IC50 [1, 4] read?
A: 0.4 nM

Q: What about the IC50 [1, 6] of the same molecule?
A: 183 nM

Q: And the efflux ratio at 120 min, 2 μM [3]?
A: 31

Q: With NCC(=O)NCCOc1ccc(N2CCN(CCn3c(=O)sc4c3nc(N)n3nc(-c5ccco5)nc43)CC2)c(F)c1 [Compound 71, 2-amino-N-(2-(4-(4-(2-(5-amino-8-(furan-2-yl)-2-oxothiazolo[5,4-e][1,2,4]triazolo[1,5-c]pyrimidin-3(2H)-yl)ethyl)piperazin-1-yl)-3-fluorophenoxy)ethyl)acetamide] as the molecule, how does the IC50 [1, 4] read?
A: 0.4 nM

Q: And the IC50 [1, 5]?
A: 3 nM

Q: What about the IC50 [1, 6] of the same molecule?
A: 79 nM

Q: And the efflux ratio at 120 min, 2 μM [3]?
A: 28

Q: For CS(=O)(=O)CCOc1cc(N2CCN(CCn3c(=O)sc4c3nc(N)n3nc(-c5ccco5)nc43)CC2)c(F)cc1F [Compound 77, 5-amino-3-(2-(4-(2,4-difluoro-5-(2-(methylsulfonyl)ethoxy)phenyl)piperazin-1-yl)ethyl)-8-(furan-2-yl)thiazolo[5,4-e][1,2,4]triazolo[1,5-c]pyrimidin-2(3H)-one], which IC50 [1, 4] is on record?
A: 0.5 nM

Q: What about the IC50 [1, 5] of the same molecule?
A: 3 nM

Q: And the IC50 [1, 6]?
A: 158 nM

Q: And the efflux ratio at 120 min, 2 μM [3]?
A: 43

Q: With C[S@+]([O-])CCNC(=O)c1cc(N2CCN(CCn3c(=O)sc4c3nc(N)n3nc(-c5ccco5)nc43)CC2)c(F)cc1F [Compound 113, (S)-5-(4-(2-(5-amino-8-(furan-2-yl)-2-oxothiazolo[5,4-e][1,2,4]triazolo[1,5-c]pyrimidin-3(2H)-yl)ethyl)piperazin-1-yl)-2,4-difluoro-N-(2-(methylsulfinyl)ethyl)benzamide] as the molecule, how does the IC50 [1, 4] read?
A: 0.4 nM

Q: What about the IC50 [1, 6] of the same molecule?
A: 37 nM

Q: And the efflux ratio at 120 min, 2 μM [3]?
A: 374

Q: With Nc1nc2c(sc(=O)n2CCN2CCN(c3cc(OCCO)ccc3F)CC2)c2nc(-c3ccco3)nn12 [Compound 88, 5-amino-3-(2-(4-(2-fluoro-5-(2-hydroxyethoxy)phenyl)piperazin-1-yl)ethyl)-8-(furan-2-yl)thiazolo[5,4-e][1,2,4]triazolo[1,5-c]pyrimidin-2(3H)-one] as the molecule, how does the IC50 [1, 4] read?
A: 0.2 nM

Q: What about the IC50 [1, 6] of the same molecule?
A: 22 nM

Q: What about the efflux ratio at 120 min, 2 μM [3] of the same molecule?
A: 19

Q: Which IC50 [1, 4] does the source give for Nc1nc2c(sc(=O)n2CCN2CCN(c3ccc(OCCN4CCNCC4)cc3F)CC2)c2nc(-c3ccco3)nn12 [Compound 27, 5-amino-3-(2-(4-(2-fluoro-4-(2-(piperazin-1-yl)ethoxy)phenyl)piperazin-1-yl)ethyl)-8-(furan-2-yl)thiazolo[5,4-e][1,2,4]triazolo[1,5-c]pyrimidin-2(3H)-one] here?
A: 0.3 nM

Q: And the IC50 [1, 5]?
A: 2 nM

Q: What about the IC50 [1, 6] of the same molecule?
A: 112 nM

Q: And the efflux ratio at 120 min, 2 μM [3]?
A: 187

Q: For Nc1nc2c(sc(=O)n2CCN2CCN(c3cc(OC[C@H](O)CO)c(F)cc3F)CC2)c2nc(-c3ccco3)nn12 [Compound 128, (R)-5-amino-3-(2-(4-(5-(2,3-dihydroxypropoxy)-2,4-difluorophenyl)piperazin-1-yl)ethyl)-8-(furan-2-yl)thiazolo[5,4-e][1,2,4]triazolo[1,5-c]pyrimidin-2(3H)-one], which IC50 [1, 4] is on record?
A: 0.4 nM

Q: And the IC50 [1, 6]?
A: 46 nM

Q: And the efflux ratio at 120 min, 2 μM [3]?
A: 419

Q: Which IC50 [1, 4] does the source give for Nc1nc2c(sc(=O)n2CCN2CCN(c3ccc(O[C@H]4COC[C@@H]4O)cc3F)CC2)c2nc(-c3ccco3)nn12 [Compound 84, 5-amino-3-(2-(4-(2-fluoro-4-(((3S,4S)-4-hydroxytetrahydrofuran-3-yl)oxy)phenyl)piperazin-1-yl)ethyl)-8-(furan-2-yl)thiazolo[5,4-e][1,2,4]triazolo[1,5-c]pyrimidin-2(3H)-one] here?
A: 0.1 nM

Q: And the IC50 [1, 6]?
A: 71 nM

Q: And the efflux ratio at 120 min, 2 μM [3]?
A: 24

Q: What does the source list for Nc1nc2c(sc(=O)n2CCN2CCN(c3ccc(O[C@@H]4CNC[C@@H]4F)cc3F)CC2)c2nc(-c3ccco3)nn12 [Compound 103, 5-amino-3-(2-(4-(2-fluoro-4-(((3R,4S)-4-fluoropyrrolidin-3-yl)oxy)phenyl)piperazin-1-yl)ethyl)-8-(furan-2-yl)thiazolo[5,4-e][1,2,4]triazolo[1,5-c]pyrimidin-2(3H)-one]?
A: IC50 [1, 4]: 1.1 nM; efflux ratio at 120 min, 2 μM [3]: 20
